Where no end group is shown, it is not given here.
Assays:
[1] = system: HaCaT cells; test: Cytotoxicity, WST-1 cell viability; conditions: 24 h, 37 °C, repeated three times
[2] = system: E. coli (ATCC 25922); format: in vitro ADME, Escherichia coli
Description: (§1) The MICs against E. coli (ATCC 25922) for cc-CATH3, ML-CATH, and PD-CATH in 150 mM NaCl and different pH (pH 5, 6, and 7) that were adjusted using acetic acid (Sigma Aldrich) were determined as described above. For serum stability assay, each AMP at four different concentrations was dissolved in 50% (v/v) FBS (Hyclone™) and incubated at 37 °C for 0, 60, and 120 min, respectively. As described in a previous study, ΔHg-CATH was used as a control for serum sensitivity. The antimicrobial activity of cc-CATH3, ML-CATH, and PD-CATH against E. coli was assessed for each condition as above. All experiments were conducted in triplicate.
Figure 2 Changes in the antibacterial activity of cc-CATH3, ML-CATH, and PD-CATH after incubation with naïve serum. cc-CATH3, ML-CATH, and PD-CATH peptides were incubated in 50% (v/v) FBS each for 0, 60, and 120 min before applying to antimicrobial activity assay against E. coli (ATCC 25922). The antimicrobial activity was determined by measuring bacterial growth at OD 450 nm. The X and Y axes indicate peptide concentration and absorbance at 450 nm, respectively. Samples containing 50% FBS in the absence of the peptides indicate a control for bacterial growth without AMP treatments. The antimicrobial activity of cc-CATH3 (A), ML-CATH (B), and PD-CATH (C) after the treatment of FBS-incubated AMPs was shown.

[3] = system: Staphylococcus chromogenes; test: microbe, parasite or virus in culture; format: cell-based; conditions: 6 h
Description: (§2) All plates were cultivated aerobically.
(§3) Experiments were conducted in triplicate.

[4] = system: Corynebacterium simulans; test: microbe, parasite or virus in culture; format: cell-based; conditions: 6 h
Description: as §2, §3

[5] = system: Streptococcus uberis; test: microbe, parasite or virus in culture; format: cell-based; conditions: 6 h
Description: as §2, §3

[6] = system: Glutamicibacter halophytocola; test: microbe, parasite or virus in culture; format: cell-based; conditions: 6 h
Description: as §2, §3

[7] = system: Staphylococcus xylosus; test: microbe, parasite or virus in culture; format: cell-based; conditions: 6 h
Description: as §2, §3

[8] = system: Staphylococcus epidermidis; test: microbe, parasite or virus in culture; format: cell-based; conditions: 6 h
Description: as §2, §3

[9] = system: all bacterial strains in the panel and field isolates from milk; format: cell-based; conditions: against all bacterial strains in the panel and field isolates from milk
Description: (§4) The standard bacterial strains used for antimicrobial activity assays include Staphylococcus aureus ATCC (American Type Culture Collection, Manassas, VA, USA) 6538, Bacillus cereus ATCC 10876, Enterococcus faecalis ATCC 29212, Streptococcus agalactiae ATCC 27956, Streptococcus dysgalactiae ATCC 27957, Streptococcus equi subsp. zooepidemicus ATCC 43079, Escherichia coli ATCC 25922, and Pseudomonas aeruginosa ATCC 27853. Most bacterial strains were cultured in LB medium except for E. faecalis and streptococci, which were cultivated in brain heart infusion (BHI) broth (BD Bioscience).
as §2, §3

[10] = system: field isolates from milk with high SCCs; conditions: all field isolates except A. hydrophila; range stated for the three peptides
Description: The minimum inhibitory concentration (MIC) was determined by following the manufacturer’s protocol and Clinical and Laboratory Standards Institute (CLSI) guidelines (2018) using a colourimetric method specified by the Microbial Viability Assay Kit-WST (Dojindo, Kumamoto, Japan). Four colonies of each bacterium were inoculated into 5 mL of LB medium and incubated at 37 °C for 4–6 h. The cells were then washed twice with sterile saline (0.9% NaCl) and seeded into a single well of a 96-well plate at a density of 1.5 × 10^5 cells/well, adjusting by McFarland standard 0.5. Subsequently, 180 µL/well of fresh MH broth (BD Bioscience) was added to the plate. Ampicillin, chloramphenicol, and gentamicin sulfate were used as controls for antimicrobial activity.
Different concentrations of each peptide and reference antibiotics (up to 40 µg/mL) were serially diluted in 10 µL of MH broth and added to each well. The plate was incubated at 37 °C for 6 h, using BHI broth to culture slow-growing fastidious strains, including E. faecalis, A. hydrophila, C. simulans, G. halophytocola, and streptococci. Cation-adjusted Mueller Hinton II broth (CAMHB) was employed to cultivate P. aeruginosa. Afterwards, 10 µL of the colouring reagent was added, and cells were incubated at 37 °C for 2 h. UV absorbance was measured for each well at 450 nm using a microplate spectrophotometer (xMark spectrophotometer; Bio-Rad, Hercules, CA, USA). The MIC values were determined when the absorbance difference between treatments and blanks (media and colouring reagent only) decreased to < 0.05. Experiments were conducted in triplicate.

[11] = system: Staphylococcus aureus ATCC 6538; test: microbe, parasite or virus in culture; format: cell-based; conditions: ATCC 6538, 6 h
Description: as §4, with “[…]” for “agalactiae ATCC”, “Bioscience). […] Experiments were conducted in triplicate.” for “Bioscience).”

[12] = system: Streptococcus equi subsp. zooepidemicus ATCC 43079; test: microbe, parasite or virus in culture; format: cell-based; conditions: ATCC 43079, 6 h
Description: as §4, with “[…]” for “agalactiae ATCC”, “Bioscience). […] Experiments were conducted in triplicate.” for “Bioscience).”

[13] = system: Pseudomonas aeruginosa ATCC 27853; test: microbe, parasite or virus in culture; format: cell-based; conditions: ATCC 27853, 6 h
Description: as §4, with “[…]” for “agalactiae ATCC”, “Bioscience). […] Experiments were conducted in triplicate.” for “Bioscience).”

[14] = system: Streptococcus agalactiae ATCC 27956; test: microbe, parasite or virus in culture; format: cell-based; conditions: ATCC 27956, 6 h
Description: as §4, with “[…]” for “agalactiae ATCC”, “Bioscience). […] Experiments were conducted in triplicate.” for “Bioscience).”

[15] = system: Enterococcus faecalis ATCC 29212; test: microbe, parasite or virus in culture; format: cell-based; conditions: ATCC 29212, 6 h
Description: as §4, with “[…]” for “agalactiae ATCC”, “Bioscience). […] Experiments were conducted in triplicate.” for “Bioscience).”

[16] = system: Streptococcus dysgalactiae ATCC 27957; test: microbe, parasite or virus in culture; format: cell-based; conditions: ATCC 27957, 6 h
Description: as §4, with “[…]” for “agalactiae ATCC”, “Bioscience). […] Experiments were conducted in triplicate.” for “Bioscience).”

[17] = system: Bacillus cereus ATCC 10876; test: microbe, parasite or virus in culture; format: cell-based; conditions: ATCC 10876, 6 h
Description: as §4, with “[…]” for “agalactiae ATCC”, “Bioscience). […] Experiments were conducted in triplicate.” for “Bioscience).”

[18] = system: PK15 cells; test: Cytotoxicity, WST-1 cell viability; conditions: 24 h, 37 °C, repeated three times
Description: (§5) Human keratinocytes (HaCaT) and pig kidney fibroblast cells (PK15, ATCC CCL-33) were cultured in Dulbecco’s modified Eagle’s medium (DMEM; Hyclone™, Logan, UT, USA) and supplemented with 10% foetal bovine serum (FBS; Hyclone™, Logan, UT, USA), 1% penicillin–streptomycin (Hyclone™) at 37 °C, and 5% CO2 up to 80% confluence. Cell substratum adhesion was disrupted using Accutase (Innovative Cell Technologies, San Diego, CA, USA). A total of 4 × 10^4 cells were incubated for 24 h at 37 °C and 5% CO2 in each well of a 96-well plate containing 64 and 160 µg/mL of each peptide.
(§6) A positive control for complete cell lysis was established using Triton-X100 (1%), and untreated cells were used as the negative control. After incubation, the medium was removed from the wells and replaced with 10 µL of colouring solution (Cell Proliferation Reagent WST-1™) and 100 µL of DMEM (Hyclone™), per the manufacturer’s protocol. Each well absorbance was measured at 440 nm (peptide-treated and control) and 650 nm (background). These measurements were recorded as the optical density (OD) using a microplate reader (xMark™ spectrophotometer; Bio-Rad, CA, USA). Cell viability was calculated using the following equation: CellViability(%)=100×(ODpeptide-ODbackground)/(ODnegative-ODbackground)
(§7) All experiments were performed in triplicate.

[19] = system: bovine erythrocytes; test: Haemolytic activity; format: cell-based; conditions: OD 410 nm, repeated three times
Description: The experimental procedures were conducted in accordance with the guidelines approved by the Institutional Animal Care and Use Committee (IACUC) of Konkuk University, Seoul, Korea, and bovine blood was collected from a cow at a local farm using a BD Vacutainer® Sodium Heparin (BD Bioscience) to analyse haemolytic activity. Plasma was removed from the whole blood by centrifugation. Erythrocytes were washed thrice with phosphate-buffered saline (PBS, pH 7.4) and resuspended in PBS at a concentration of 2% (v/v). Subsequently, 100 µL of the erythrocyte suspension was added to each well of a 96-well microtiter plate. The plate contained an equal volume of the peptides in PBS with different concentrations of 10, 20, 40, 80, and 160 μg/mL. Triton-X 100 (1%) and PBS were used as positive and negative controls, respectively. Plates were incubated at 37 °C for 1 h. The release of haemoglobin into the supernatant was monitored by measuring the change in OD at 410 nm using a microplate reader (xMark™ spectrophotometer; Bio-Rad). Results from three independent experiments were pooled. Hemolysis was calculated using the formula: HemolyticPercentage(%)=100×(ODpeptide-ODnegative)/(ODpositive-ODnegative)
All experiments were carried out in triplicate.

[20] = system: eight standard bacterial strains; format: cell-based; conditions: all eight standard strains; range stated for the three peptides
Description: as §4, with “[…]” for “agalactiae ATCC”, “Bioscience). […] Experiments were conducted in triplicate.” for “Bioscience).”

[21] = system: E. coli (ATCC 25922); format: cell-based, Escherichia coli; conditions: ATCC 25922, pH 5
Description: as §3, §1

[22] = system: PK15 and HaCaT cells
Description: as §5, §6, §7

[23] = 10 μg/mL, 2% (v/v) erythrocytes in PBS pH 7.4, 37 °C 1 h, mean ± SD
[24] = 20 μg/mL, 2% erythrocytes in PBS pH 7.4, 37 °C 1 h
[25] = 40 μg/mL, 2% erythrocytes in PBS pH 7.4, 37 °C 1 h
[26] = 80 μg/mL, 2% erythrocytes in PBS pH 7.4, 37 °C 1 h

| Sequence | Cell viability ± SD, HaCaT ([1]; 64 μg/mL peptide) | Cell viability ± SD, HaCaT ([1]; 160 μg/mL peptide) | antibacterial activity after incubation with serum [2] | Minimal inhibitory concentration, Staphylococcus chromogenes [3] | Minimal inhibitory concentration, Corynebacterium simulans [4] | Minimal inhibitory concentration, Streptococcus uberis [5] | Minimal inhibitory concentration, Glutamicibacter halophytocola [6] | Minimal inhibitory concentration, Staphylococcus xylosus [7] | Minimal inhibitory concentration, Staphylococcus epidermidis [8] | minimum inhibitory concentration, range over strains [9] | MICs, range over field isolates [10] | Minimal inhibitory concentration, Staphylococcus aureus [11] | Minimal inhibitory concentration, Streptococcus equi subsp. zooepidemicus [12] | Minimal inhibitory concentration, Pseudomonas aeruginosa [13] | Minimal inhibitory concentration, Streptococcus agalactiae [14] | Minimal inhibitory concentration, Enterococcus faecalis [15] | Minimal inhibitory concentration, Streptococcus dysgalactiae [16] | Minimal inhibitory concentration, Bacillus cereus [17] | Cell viability ± SD, PK15 ([18]; 64 μg/mL peptide) | Cell viability ± SD, PK15 ([18]; 160 μg/mL peptide) | further results |
| --- | --- | --- | --- | --- | --- | --- | --- | --- | --- | --- | --- | --- | --- | --- | --- | --- | --- | --- | --- | --- | --- |
| ILGPALRIGGRIAGRIAGKLIGDAINRHRERNRQRRG [PD-CATH] | 100.2 ± 0.2% | 11.4 ± 0.5% | remained unaffected under all the tested conditions | 4 (1.0) μg/mL | 1 µg/mL | 5 (1.2) μg/mL | 1 µg/mL | 3 (0.7) μg/mL | 3 (0.7) μg/mL | 0.2 to 10.3 µM | 0.8 to 5 µg/mL | 3 (0.7) μg/mL | 17 (4.2) μg/mL | 42 (10.3) μg/mL | 8 (2.0) μg/mL | 6 (1.5) μg/mL | 18 (4.4) μg/mL | 6 (1.5) μg/mL | 43.6 ± 1.7% | 7.4 ± 0.2% | Haemolytic activity against bovine erythrocytes [19, 23]: 0.4 ± 0.2%; Haemolytic activity against bovine erythrocytes [19, 24]: 0.7 ± 0.4%; Haemolytic activity against bovine erythrocytes [19, 25]: 2.9 ± 0.2%; Haemolytic activity against bovine erythrocytes [19, 26]: 3.5 ± 0.2%; MICs, range over all bacterial species in the test panel [20]: 2 to 42 µg/mL |
| LNPLIKAGIFILKHRRPIGRGIEITGRGIKKFFSK [ML-CATH] | 99.7 ± 0.9% | 98.0 ± 1.5% | remained unaffected under all the tested conditions | 2 (0.5) μg/mL | 1 (0.3) μg/mL | 3 (0.8) μg/mL | 2 (0.5) μg/mL | 2 (0.5) μg/mL | 2 (0.5) μg/mL | 0.2 to 10.3 µM | 0.8 to 5 µg/mL | 2 (0.5) μg/mL | 9 (2.3) μg/mL | 42 (10.6) μg/mL | 8 (2.0) μg/mL | 5 (1.3) μg/mL | 14 (3.5) μg/mL | 3 (0.8) μg/mL | 96.2 ± 0.4% | 38.0 ± 2.2% | Haemolytic activity against bovine erythrocytes [19, 23]: 5.8 ± 0.4%; Haemolytic activity against bovine erythrocytes [19, 24]: 6.4 ± 0.8%; Haemolytic activity against bovine erythrocytes [19, 25]: 7.0 ± 0.8%; Haemolytic activity against bovine erythrocytes [19, 26]: 7.7 ± 0.2%; Haemolytic activity against bovine erythrocytes ([19]; 160 μg/mL, 2% erythrocytes in PBS pH 7.4, 37 °C 1 h): 11.8 ± 4.5%; MICs, range over all bacterial species in the test panel [20]: 2 to 42 µg/mL; MIC against E. coli in more acidic conditions [21]: 2 µg/mL; cell viability of PK15 and HaCaT [22]: 91.1 ± 1.8% to 100.6 ± 0.4 |

Reference: article PMC11566078, “Bactericidal activities and biochemical features of 16 antimicrobial peptides against bovine-mastitis causative pathogens” (Veterinary Research, 2024)
